Data reported in the supplement of paper PMC13380429.

Tests used:
Conditions in all cases: 72 h
[1] = system: Calu-3; experiment: relative viability EC50 (midpoint between 100% and the lowest measured viability); higher = less toxic
[2] = system: Vero E6; experiment: as above
[3] = system: U2OS; experiment: as above
[4] = system: HepG2; experiment: as above
[5] = system: Caco-2; experiment: as above
[6] = system: Calu-3; experiment: drug sensitivity score (DSS) for viability; higher = more toxic; extreme values may be limits of the assay
[7] = system: Vero E6; experiment: as above
[8] = system: U2OS; experiment: as above
[9] = system: HepG2; experiment: as above
[10] = system: Caco-2; experiment: as above
[11] = system: Calu-3; experiment: cell viability relative to DMSO; higher = less toxic
[12] = system: Vero E6; experiment: as above
[13] = system: U2OS; experiment: as above
[14] = system: HepG2; experiment: as above
[15] = system: Caco-2; experiment: as above

SMILES	relative viability EC50 [1] [µM]	relative viability EC50 [2] [µM]	relative viability EC50 [3] [µM]	relative viability EC50 [4] [µM]	relative viability EC50 [5] [µM]	drug sensitivity score [6]	drug sensitivity score [7]	drug sensitivity score [8]	drug sensitivity score [9]	drug sensitivity score [10]	cell viability ([11]; 1 nM) [%]	cell viability ([11]; 10 nM) [%]	cell viability ([11]; 100 nM) [%]	cell viability ([11]; 1000 nM) [%]	cell viability ([11]; 10000 nM) [%]	cell viability ([12]; 1 nM) [%]	cell viability ([12]; 10 nM) [%]	cell viability ([12]; 100 nM) [%]	cell viability ([12]; 1000 nM) [%]	cell viability ([12]; 10000 nM) [%]	cell viability ([13]; 1 nM) [%]	cell viability ([13]; 10 nM) [%]	cell viability ([13]; 100 nM) [%]	cell viability ([13]; 1000 nM) [%]	cell viability ([13]; 10000 nM) [%]	cell viability ([14]; 1 nM) [%]	cell viability ([14]; 10 nM) [%]	cell viability ([14]; 100 nM) [%]	cell viability ([14]; 1000 nM) [%]	cell viability ([14]; 10000 nM) [%]	cell viability ([15]; 1 nM) [%]	cell viability ([15]; 10 nM) [%]	cell viability ([15]; 100 nM) [%]	cell viability ([15]; 1000 nM) [%]	cell viability ([15]; 10000 nM) [%]
CCN(CC)CC1CCCCN1CC(=O)N1c2ccccc2C(=O)Nc2cccnc21 (stereo not given) [otenzepad]	> 10	> 10	> 10	> 10	> 10	0	0	0	0	0	102	105	96	96.3	101	97.8	97	95.7	92.4	99.5	100	102	102	100	97.4	94.3	104	92.3	101	98.9	104	104	108	97.6	98.8
O=S(=O)(O)c1ccc2[nH]c(-c3ccccc3)nc2c1 [phenylbenzimidazole-sulfonic-acid]	> 10	> 10	> 10	> 10	> 10	0	0	0	0	0	111	112	106	105	89.2	96.3	89.7	97.3	96.7	107	97.9	96.7	103	99.3	99.4	85.6	93	93.2	94.3	99.2	98.9	95.8	90.3	93	96.8
O=C(O)/C=C/c1ccc(O)c(O)c1 [caffeic-acid]	> 10	> 10	> 10	> 10	> 10	0	0	0	0	0	93.1	111	109	95	102	99.1	96.7	102	94.1	104	94	100	95.9	100	105	101	104	106	97.5	105	89	92.8	90.9	94.7	108
NCC(=O)CCC(=O)O [5-aminolevulinic-acid]	> 10	> 10	> 10	> 10	> 10	0	0	0	0	1.1	96.9	104	105	104	104	93.7	94	91.7	91.3	97.8	104	96.9	99	94.6	95.3	91.4	99	92.1	104	104	100	103	98.9	86.2	94
NC(=O)CN1CC[C@@H](NC(=O)[C@@H]2CCCN2)C1=O [PAOPA]	> 10	> 10	> 10	> 10	> 10	0	0	0	0	0	98.1	99.6	106	94.2	106	95.4	97.8	92.5	101	104	100	102	102	105	95.2	89.1	109	97	100	108	100	99.7	100	134	96.7
N[C@@H](C(=O)N[C@@H]1C(=O)N2C(C(=O)O)=C(Cl)CS[C@H]12)c1ccccc1 [cefaclor]	> 10	> 10	> 10	> 10	> 10	0	0	0	0	0	97.1	99	102	102	98.5	97	98.3	101	95.8	94.7	101	103	99.3	98	98.2	96.4	102	100	104	98.5	94.7	98	88.9	97.1	92.6
CSc1ccccc1Nc1nc(N2CCNCC2)nc2c(NCC3CC3)ncnc12 [KHK-IN-1]	2.7	2.26	3.04	2.47	3.39	6.4	7.3	5.8	6.9	5.2	99.5	95.4	106	94.1	0.2	101	98.1	96.1	89.1	0.1	97.6	98.7	95.7	98.2	0.1	104	91	94.1	91.6	0	103	107	98.7	104	0.6
